{"source": "patent US20240350430A1", "about": "“GROWTH INHIBITOR OF METASTATIC HUMAN PROSTATE CANCER CELLS” (Watanabe Oyster Laboratory Co., Ltd., priority 2021, published 2024)", "key": {"[1]": {"system": "DU-145 cells", "experiment": "Cell growth of DU-145 cells (cell counting)", "format": "cell-based, human", "settings": "DHMBA 10 μM, one to six days", "description": "The PC-3 and DU-145 cells (the cell number of 1×10^5/in 1 ml of a culture fluid per hole using a 24-hole plate) were cultured in a DMEM culture fluid (containing 10% of FBS, 1% of P/S, and 1% of fungizone) containing the DHMBA (1 and 10 μM) under 5% of CO2, at 37° C., for one, two, three, four, and six days. […] After the culture, 0.1 ml of 0.05% trypsin-EDTA solution obtained by dissolving the cells adhering to the bottom surface of the culture dish in PBS (Thermo Fisher Scientific, Waltham, MA, USA) not containing Ca^2+/Mg^2+ was added, incubation was performed at 37° C. for two minutes to release the adhering cells, and 0.9 ml of the DMEM culture fluid containing 10% of FBS and 1% of P/S was added to stop the reaction. The cell number in the cell suspension was counted by the method described in the item of “Measurement of Cell Number.”\n(§1) After the culture of the cells, 0.1 ml of 0.05% trypsin-EDTA solution obtained by dissolving the cells adhering to the bottom surface of the culture dish in PBS (Thermo Fisher Scientific, Waltham, MA, USA) not containing Ca^2+/Mg^2+ was added, incubation was performed at 37° C. for two minutes to release the adhering cells, and 0.9 ml of the DMEM culture fluid containing 10% of FBS and 1% of P/S was added to stop the reaction. The visible cells were counted by the Olympus MTV-3 microscope using a hemocytometer (Sigma-Aldrich).\nFIG. 2(C) is a diagram in which the DU-145 cells (1×10^5 cells/per well of a 24-well plate) were cultured under 5% of CO2, at 37° C., for one to six days in a DMEM culture fluid (containing 10% of FBS, 1% of P/S, and 1% of fungizone) containing the DHMBA (10 μM).\nIn FIGS. 2(D) and 2(E), the DU-145 cells (1×10^5 cells/per well of a 24-well plate) were cultured under 5% of CO2, at 37° C., for three (FIG. 2D) and six (FIG. 2E) days in a DMEM culture fluid (containing 10% of FBS, 1% of P/S, and 1% of fungizone) containing the DHMBA (0.01, 0.1, 1, 10, 100, and 1000 μM). After the culture, the cells adhered to the dish were removed and counted. […] 1-way ANOVA, Tukey-Kramer post-test."}, "[2]": {"system": "PC-3 cells", "experiment": "Cell death of sub-confluent PC-3 cells (adherent cell counting)", "format": "cell-based, human", "description": "The PC-3 and DU-145 cells (1×10^5/in 1 ml of a culture fluid per hole using a 24-hole plate) were cultured in a DMEM culture fluid (containing 10% of FBS, 1% of P/S, and 1% of fungizone) under 5% of CO2, at 37° C., for three days, and when the cells reached sub-confluence, the culture fluid was exchanged for the one containing the DHMBA (0.01, 0.1, 1, 10, 100, or 1000 μM), and the cells were cultured for 24 and 48 hours. After the culture, the cells adhering to the bottom surface of the dish were removed and counted. In another experiment, after the culture for three days, when the cells reached sub-confluence, the culture fluid was exchanged for a culture fluid containing the DHMBA (1 or 10 μM) and a caspase-3 inhibitor (10 μM), and the cells were counted after the culture for 48 hours. Further, after the culture for three days, when the cells reached sub-confluence, the culture fluid was exchanged for a culture fluid obtained by adding gemcitabine (0.1, 1, 10, 50 or 100 nM) or CH223191 (1, 10, and 25 μM) to a DMEM culture fluid containing the DHMBA (1 or 10 μM) or not containing the DHMBA, and the cells were counted after the culture for 48 hours.\nas §1\nIn the drawing, the PC-3 (FIGS. 5(A) and 5(B)) and DU-145 (FIGS. 5(D) and 5(E)) cells (1×10^5/in 1 ml of a culture fluid per hole using a 24-hole plate) were cultured under 5% of CO2, at 37° C., for three days in a DMEM culture fluid (containing 10% of FBS, 1% of P/S, and 1% of fungizone), and when the cells reached sub-confluence, the culture fluid was exchanged for the one containing the DHMBA (0.01, 0.1, 1, 10, 100, or 1000 μM), and the cells were cultured for 24 and 48 hours. In the drawing, after the culture, the cells adhering to the dish were counted.\nIn another experiment, after the culture for three days, when the cells reached sub-confluence, for the PC-3 (FIG. 5(C)) or DU-145 (FIG. 5(F)) cells, the culture fluid was exchanged for a culture fluid containing the DHMBA (1 or 10 μM) and a caspase-3 inhibitor (10 μM), and the cells were counted after the culture for 48 hours. Further, after the culture for three days, when the cells reached sub-confluence, the culture fluid was exchanged for a culture fluid obtained by adding gemcitabine (0.1, 1, 10, 50 or 100 nM) or CH223191 (1, 10, and 25 μM) to a DMEM culture fluid containing the DHMBA (1 or 10 μM) or not containing the DHMBA, and the cells were counted after the culture for 48 hours. After the culture, the cells adhered to the dish were removed and counted. Each piece of data is shown with a mean value and a standard deviation of values obtained from eight wells of the different cultured cells. *p<0.001, comparison with the control (gray bar). 1-way ANOVA, Tukey-Kramer post-test.\nThe PC-3 cells (1×10^5/in 1 ml of a culture fluid per hole using a 24-hole plate) were cultured under 5% of CO2, at 37° C., for three days in a DMEM culture fluid (containing 10% of FBS, 1% of P/S, and 1% of fungizone), and when the cells reached sub-confluence, the culture fluid was exchanged for the one containing the gemcitabine (1, 10, 50, 100, or 250 nM), and the cells were cultured for 48 hours. In the drawing, after the culture, the cells adhering to the dish were counted.\nAfter the culture for three days, when the cells reached sub-confluence, the culture fluid was exchanged for a culture fluid containing the DHMBA (1 or 10 μM) and gemcitabine (1, 10, or 100 nM), and the cells were counted after the culture for 48 hours. […]"}}}
{"smiles": "COc1c(O)cc(CO)cc1O", "note": "[DHMBA, 3,5-dihydroxy-4-methoxybenzyl alcohol]", "values": [{"measurement": "cell growth", "setting": "[1]", "value": "inhibited"}, {"measurement": "cell death inducing effect of DHMBA in the presence of CH223191", "setting": "[2]; DHMBA 10 μM with CH223191 1, 10, or 25 μM, 48 hours", "value": "found not to be expressed"}, {"measurement": "cell death", "setting": "[2]; DHMBA 1, 10, 100, or 1000 μM, 24 and 48 hours", "value": "significantly increased"}, {"measurement": "cell death inducing action of DHMBA in the presence of gemcitabine 1 or 10 nM", "setting": "[2]; DHMBA 1 and 10 μM, 48 hours", "value": "did not occur"}, {"measurement": "cell death inducing effect of DHMBA in the coexistence of gemcitabine 100 nM", "setting": "[2]; DHMBA 1 and 10 μM, 48 hours", "value": "significantly enhanced"}, {"measurement": "increase of cell death in the presence of caspase-3 inhibitor", "setting": "[2]; DHMBA 1 or 10 μM with caspase-3 inhibitor 10 μM, 48 hours", "value": "not caused"}]}
